One experiment concerns KB. Description: Cytotoxicity against human KB cells. The experiment is classed as functional, cell-based.
Another experiment relates to HeLa. Description: Cytotoxicity against human HeLa S3 cells. In kind it is functional, cell-based.

The results in this text go back to ChEMBL document CHEMBL1144073, “A cytotoxic triterpene saponin from the root bark of Aralia dasyphylla” (J Nat Prod, 1999).

As usually defined, the IC50 is the concentration at which inhibition is half-maximal. Read a low IC50 as greater potency in that assay.

Values after ≈ are worked out from the molar mass of the structure shown.

For the compound `CC1(C)CC[C@]2(C(=O)O[C@@H]3O[C@H](CO)[C@@H](O)[C@H](O)[C@H]3O)CC[C@]3(C)C(=CC[C@@H]4[C@@]5(C)CC[C@H](O[C@@H]6O[C@H](C(=O)O)[C@@H](O)[C@H](O[C@@H]7O[C@H](CO)[C@@H](O)[C@H](O)[C@H]7O)[C@H]6O[C@@H]6O[C@H](CO)[C@H](O)[C@H](O)[C@H]6O)C(C)(C)C5CC[C@]43C)[C@H]2C1` (stereo partly specified), the IC50 in the experiment on KB was 1.2 µg/mL (≈ 1.07 µM); in the experiment on HeLa it was 0.02 µg/mL (≈ 0.0179 µM).

As for `Nc1ccn([C@@H]2O[C@H](CO)[C@@H](O)[C@@H]2O)c(=O)n1` [CYTARABINE], the IC50 in the experiment with KB amounted to 0.81 µg/mL (≈ 3.33 µM); in the experiment with HeLa, 0.23 µg/mL (≈ 0.946 µM).

With `O=c1[nH]cc(F)c(=O)[nH]1` [FLUOROURACIL], the IC50 with KB amounted to 0.93 µg/mL (≈ 7.15 µM); with HeLa it was 0.44 µg/mL (≈ 3.38 µM).
